Reference: a melting point compilation (Tetko et al.; mined from patent text by program, amines drawn as free bases though some values may be those of a salt)

Structure (SMILES)	melting point [°C]
COC(=O)COc1cccc(CCNC(=O)/C=C/c2cccnc2)c1	102 to 104
CC(=O)N[C@@H](CSC(c1ccccc1)(c1ccccc1)c1ccccc1)C(=O)NCCSC(=O)C(C)(C)C	212 to 213
NS(=O)(=O)c1ccc(NC(=O)CCl)c(F)c1	185 to 187
CCCNC(=O)NS(=O)(=O)c1cc2c(cc1OC)OCCC2CNC(=O)c1cc(Cl)ccc1OC (centres undefined)	159 to 160
CC(C)c1ccc(C#N)nc1	47 to 49
Cc1nc(N)c2nc(O)n(Cc3cc(-c4ccc(F)cc4)no3)c2c1C	250
Cn1c(=O)c(-c2nnn(Cc3cccc(OCc4ccc5ccccc5n4)c3)n2)cc2cc(OCCCN3CCN(Cc4ccc5ccccc5n4)CC3)ccc21	174 to 178
COC(=O)c1cc(-c2ncnc(C)c2C#N)c(F)cc1Cl	142 to 144
CC(OC(=O)c1ccccc1)C(N)=O (centres undefined)	116 to 117
Cc1cc(F)ccc1-c1nc(OCCNC(=O)OC(C)(C)C)nc2c1ccc(=O)n2-c1c(F)cccc1F	103 to 105
CC(O)Cc1cccc(Nc2nccc(-c3sc(N)nc3-c3ccccc3)n2)c1 (centres undefined)	219 to 220
O=[N+]([O-])c1cccc(CN(CCO)CCO)c1	71 to 72
CCOC(=O)C(=CC(=CN(C)C)C(=O)C(=O)OC)Sc1ccccc1	118
CN(C)C(=O)C1=Cc2cccc(OC[C@@H]3CO3)c2OC1	115 to 117
CSCc1ccc(-c2cccnc2)o1	67 to 68
COC(=O)C1=NC2=COc3ccc(C)cc3N2C1C(=O)O (centres undefined)	178 to 179
CCOC(=O)C(C)(C)NC(=O)C(Br)c1ccccc1 (centres undefined)	81 to 83
O=C(NCCO)c1cccc(-c2ccc3c(n2)N(Cc2ccc(Cl)cc2Cl)CC3)c1	142 to 143
CC(=NO)c1cccc(C(F)(F)F)c1	63 to 65
C=CCOC(=O)C1=C(C)NC(C)=C(C(=O)OC(C)C)C1c1cccc([N+](=O)[O-])c1 (centres undefined)	96 to 97

Structure (SMILES)	melting point [°C]
O=C(O)COc1ccc(CCc2nc(-c3ccccc3)c(-c3ccccc3)o2)cc1	147 to 149
Cc1cccc2nc(C(S)c3ncnc4[nH]cnc34)n(-c3ccccc3F)c(=O)c12 (centres undefined)	152
ClC(Cl)(Cl)c1nsc(N2CCCC2)n1	106 to 107
O=C(c1ccc(O)cc1)c1c(-c2ccccc2)sc2ccccc12	163 to 165
CCOC(=O)c1c(C(F)(F)F)nc(C(F)(F)F)c(C)c1OCC	72.5 to 74
CCc1c(-c2ccc(O)cc2)n(Cc2ccc(OCCN3CCCCC3)cc2)c2ccc(O)cc12	160 to 164
CSc1nc(=O)n(-c2ccc(Cl)cc2)c(=O)[nH]1	292 to 295
CC(C)(Oc1ccc(CCC(=O)c2ccc(-c3ccccc3)s2)c(Cl)c1Cl)C(=O)O	179 to 180
CN1CN(C)C(=N[N+](=O)[O-])N(Cc2cnc(Cl)s2)C1	125 to 126
CCCc1c2nc(C(=O)OC)cc(C(F)(F)C(F)(F)C(F)(F)F)c2cc2c(=O)cc(C(=O)OCC)oc12	144 to 146
CN1C(=O)N(c2cccc(Cl)c2)C(=O)C1S(=O)(=O)c1ccc(F)cc1 (centres undefined)	170 to 173
O=C(CC(=O)c1ccc(O)cc1O)c1ccc(OCc2ccccc2)c(OCc2ccccc2)c1	245 to 247
[N-]=[N+]=Nc1nc(N)c2ncn(COCCO)c2n1	191 to 192
CC1Cc2cc3c(cc2C(c2ccc([N+](=O)[O-])cc2)=NN1c1nnn[nH]1)OCO3 (centres undefined)	263 to 264
CN(C)c1cc(-c2c[nH]cn2)ccn1	173 to 174
CN(C)c1ccc2nc(N)c(C#N)c(NCc3ccco3)c2c1	235
C=CCSc1ncn(C(=O)N(CC=C)CC=C)n1	27 to 30
CN(C)c1ccc(C(=O)N[C@H](Cc2ccc(C(F)(F)F)cc2)[C@@H](O)c2ccc(F)cc2)c2ccccc12 (racemic)	169 to 170
COCCOc1ccc(C#CC2(O)CN3CCC2CC3)c(CO)c1 (centres undefined)	98.5 to 100
